The test system of this assay is USP11. Nature of the assay: USP11 immunoblotting of irradiated U2OS cells (USP11 stability after DNA damage). The class given is cell-based. The settings on record: irradiated (20 Gy), inhibitor at 5 μM, USP11 immunoblot, FIG. 11g. As to the method: FIG. 11. Characterization of USP11 protein stability a, U2OS cells synchronized in G1 or S/G2 were treated with cyclohexamide (CHX) and processed at the indicated time points to monitor USP11 stability. b, Immunoprecipitation (IP) of PALB2 from extracts prepared from 293T cells that were synchronized in G1 or S phase and treated or not with IR (20 Gy). c, U2OS cells were irradiated with a dose of 2 or 20 Gy and processed for USP11 immunoblotting at the indicated times post-IR. Actin was used as a loading control. d, U2OS cells, mock-treated or incubated with the ATM inhibitor KU55933 (ATMi), ATR inhibitor VE-821 (ATRi) or DNA-PKcs inhibitor NU7441 (DNAPKi), were irradiated (20 Gy) and processed for USP11 and actin (loading control) immunoblotting. e, Similar experiment to d except that cells were exposed to ultraviolet (UV) radiation (50 mJ/cm^−2). f, U2OS cells, mock-treated or incubated with the proteasome inhibitor MG132, were irradiated (20 Gy) and processed for USP11 and actin (loading control) immunoblotting. g, U2OS cells, mock-treated or incubated with the Cullin inhibitor MLN4924, were irradiated (20 Gy) and processed for USP11 and actin (loading control) immunoblotting. […]
On the technique in general: Immunoblotting shows a protein as a band on a membrane.

Structures are written as SMILES.

With `NS(=O)(=O)OC[C@@H]1C[C@@H](n2ccc3c(N[C@H]4CCc5ccccc54)ncnc32)C[C@@H]1O` [MLN4924], the “DNA damage-induced degradation of USP11” value is “protected USP11 from DNA damage-induced degradation”.
